System: 624824-186-R-J2-PDC multicell spheroids, viability
Assay: Anticancer human tumor 624824-186-R-J2-PDC patient-derived colon adenocarcinoma cell line growth inhibition [PI3K]
Conditions: for IC50: curve of first compound; for viability, T/C: stronger effect = lower value
Excerpt: Combinatorial screen of targeted agents with the PI3K inhibitors inavolisib, alpelisib, duvelisib, and copanlisib in multi-cell type tumor spheroids
A high-throughput screen of multi-cell type tumor spheroids was designed to identify active combinations of targeted small molecules and PI3K pathway inhibitors. Complex spheroids include a stromal component modeled by human endothelial cells (HUVEC) and fibroblasts modeled by human mesenchymal stem cells (MSCs). The concentration ranges selected for each drug and investigational agent were based upon clinically achievable concentrations if the clinical Cmax of the agent was known.
Compounds. The drugs and investigational agents: inavolisib (NSC800729), alpelisib (NSC765974), duvelisib (NSC772469), copanlisib (NSC816437), ipatasertib (NSC767898), afuresertib (NSC778305), talazoparib (NSC767125), sapanisertib (NSC764658), selumetinib (NSC741078), tovorafenib (DAY101, NSC766906), vemurafenib (NSC761431), ravoxertinib (NSC781343), sotorasib (NSC818433), MRTX1133 (NSC 836407), abemaciclib (NSC 768073), palbociclib (NSC758247), venetoclax (NSC 766270), SY5609 (NSC837396), enzalutamide (NSC755605), and darolutamide (NSC825331), were obtained from the National Cancer Institute (NCI) Developmental Therapeutics Program Chemical Repository. The FDA-approved anticancer drug set is available from the NCI Developmental Therapeutics Program. […] The stock solutions were prepared in dimethyl sulfoxide (DMSO, Sigma-Aldrich, St. Louis, MO, cat. D2650) at 800-fold the tested concentration and stored at -70 degrees C prior to their use. All drugs and investigational agents were tested over a range starting from a high concentration at or near the clinical Cmax and decreasing in half-log increments. If the clinical Cmax for an agent had not been determined, the highest concentration tested was 10 microM.
Cell Culture. All cells were maintained in an incubator at 37 degrees C and 5% CO2 with 95% humidity. The PDC lines were cultured according to standard operating procedures established by the NCI PDMR (https://pdmr.cancer.gov/sops/default.htm). All PDCs were thawed and cultured in Matrigel-coated flasks prepared with a working solution of 1X Ham's F-12 nutrient mix, without supplementation (Invitrogen, Waltham, MA, cat. 11765054), 100 U/mL penicillin-streptomycin (Invitrogen, cat. 15140122), and 2.5% Matrigel (Corning Inc., Corning, NY, cat. 354248) for the first three passages. The 354836-022-R-J1-PDC, 475296-252-R-J1-PDC, and 997726-040-R-J2-PDC lines were cultured in 6A media, which includes advanced DMEM/F-12 (Thermo Fisher Scientific, cat. 12634028), 10 mM HEPES (Thermo Fisher Scientific, cat. 15630080), 1X GlutaMAX supplement (Thermo Fisher Scientific, cat. 35050061), 0.1 mg/mL primocin (InvivoGen, San Diego, CA, cat. ant-pm-2), 10% defined fetal bovine serum, heat inactivated (HyClone Laboratories Inc., Logan, UT, cat. SH30070.03HI), 50% L-WRN conditioned media (ATCC, cat. CRL-3276), 1.25 mM N-Acetyl-L-cysteine (Sigma-Aldrich, cat. A9165), 10 mM nicotinamide (Sigma-Aldrich, cat. N0636), 1X B-27 supplement (Thermo Fisher Scientific, cat. 17504044), 1X N-2 supplement (Thermo Fisher Scientific, cat. 17502048), and 10 microM Y-27632 dihydrochloride (Tocris Bioscience, Bristol, United Kingdom, cat. 1254). The 624824-186-R-J2-PDC line was cultured in 6C/Colon 1B media, which includes all 6A media components plus 50 ng/mL human EGF recombinant protein (Thermo Fisher Scientific, cat. PHG0311). […]

[1] = second compound 0.00316 µM, first compound 0.0316 µM
[2] = second compound 0.00316 µM, first compound 0.1 µM
[3] = second compound 0.01 µM, first compound 0.0316 µM
[4] = second compound 0.01 µM, first compound 0.1 µM
[5] = second compound 0.0316 µM, first compound 0.0316 µM
[6] = second compound 0.0316 µM, first compound 0.1 µM
[7] = second compound 0.1 µM, first compound 0.0316 µM
[8] = second compound 0.1 µM, first compound 0.1 µM
[9] = second compound 0.316 µM, first compound 0.0316 µM
[10] = second compound 0.316 µM, first compound 0.1 µM
[11] = second compound 1 µM, first compound 0.0316 µM
[12] = second compound 1 µM, first compound 0.1 µM
[13] = second compound 0.00316 µM, first compound 0.316 µM
[14] = second compound 0.00316 µM, first compound 1 µM
[15] = second compound 0.00316 µM, first compound 3.16 µM
[16] = second compound 0.00316 µM, first compound 10 µM
[17] = second compound 0.01 µM, first compound 0.316 µM
[18] = second compound 0.01 µM, first compound 1 µM
[19] = second compound 0.01 µM, first compound 3.16 µM
[20] = second compound 0.01 µM, first compound 10 µM
[21] = second compound 0.0316 µM, first compound 0.316 µM
[22] = second compound 0.0316 µM, first compound 1 µM
[23] = second compound 0.0316 µM, first compound 3.16 µM
[24] = second compound 0.0316 µM, first compound 10 µM
[25] = second compound 0.1 µM, first compound 0.316 µM
[26] = second compound 0.1 µM, first compound 1 µM
[27] = second compound 0.1 µM, first compound 3.16 µM
[28] = second compound 0.1 µM, first compound 10 µM
[29] = second compound 0.316 µM, first compound 0.316 µM
[30] = second compound 0.316 µM, first compound 1 µM
[31] = second compound 0.316 µM, first compound 3.16 µM
[32] = second compound 0.316 µM, first compound 10 µM
[33] = second compound 1 µM, first compound 0.316 µM
[34] = second compound 1 µM, first compound 1 µM
[35] = second compound 1 µM, first compound 3.16 µM
[36] = second compound 1 µM, first compound 10 µM
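Further: spheroids exposed to agents for 7 days before viability read.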
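Wherever viability, T/C is given: 100% = DMSO vehicle treated spheroids.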

## CC(C)n1nc(-c2ccc3oc(N)nc3c2)c2c(N)ncnc21 + CC(Nc1ccc2c(c1)OCCn1cc(N3C(=O)OCC3C(F)F)nc1-2)C(N)=O
Second compound 0.00316 µM
  IC50: > 0.1 µM
Second compound 0.01 µM
  IC50: > 0.1 µM
Second compound 0.0316 µM
  IC50: > 0.1 µM
Second compound 0.1 µM
  IC50: > 0.1 µM
Second compound 0.316 µM
  IC50: > 0.1 µM
Second compound 1 µM
  IC50: > 0.1 µM
Second compound 0.00316 µM, first compound 0.000316 µM
  viability, T/C: 74%
Second compound 0.00316 µM, first compound 0.001 µM
  viability, T/C: 86.9%
Second compound 0.00316 µM, first compound 0.00316 µM
  viability, T/C: 95.5%
Second compound 0.00316 µM, first compound 0.01 µM
  viability, T/C: 92.1%
[1]
  viability, T/C: 89.2%
[2]
  viability, T/C: 87.5%
Second compound 0.01 µM, first compound 0.000316 µM
  viability, T/C: 106%
Second compound 0.01 µM, first compound 0.001 µM
  viability, T/C: 110%
Second compound 0.01 µM, first compound 0.00316 µM
  viability, T/C: 107%
Second compound 0.01 µM, first compound 0.01 µM
  viability, T/C: 86.8%
[3]
  viability, T/C: 105%
[4]
  viability, T/C: 87.2%
Second compound 0.0316 µM, first compound 0.000316 µM
  viability, T/C: 83.5%
Second compound 0.0316 µM, first compound 0.001 µM
  viability, T/C: 81.4%
Second compound 0.0316 µM, first compound 0.00316 µM
  viability, T/C: 67.6%
Second compound 0.0316 µM, first compound 0.01 µM
  viability, T/C: 78.1%
[5]
  viability, T/C: 91.9%
[6]
  viability, T/C: 90.4%
Second compound 0.1 µM, first compound 0.000316 µM
  viability, T/C: 88.3%
Second compound 0.1 µM, first compound 0.001 µM
  viability, T/C: 96.8%
Second compound 0.1 µM, first compound 0.00316 µM
  viability, T/C: 96.8%
Second compound 0.1 µM, first compound 0.01 µM
  viability, T/C: 68.4%
[7]
  viability, T/C: 84.5%
[8]
  viability, T/C: 92.5%
Second compound 0.316 µM, first compound 0.000316 µM
  viability, T/C: 74.9%
Second compound 0.316 µM, first compound 0.001 µM
  viability, T/C: 96.1%
Second compound 0.316 µM, first compound 0.00316 µM
  viability, T/C: 78.7%
Second compound 0.316 µM, first compound 0.01 µM
  viability, T/C: 72.3%
[9]
  viability, T/C: 82.2%
[10]
  viability, T/C: 75.4%
Second compound 1 µM, first compound 0.000316 µM
  viability, T/C: 97%
Second compound 1 µM, first compound 0.001 µM
  viability, T/C: 78.9%
Second compound 1 µM, first compound 0.00316 µM
  viability, T/C: 85%
Second compound 1 µM, first compound 0.01 µM
  viability, T/C: 88.5%
[11]
  viability, T/C: 84.1%
[12]
  viability, T/C: 72%

## CC1(C)CCC(CN2CCN(c3ccc(C(=O)NS(=O)(=O)c4ccc(NCC5CCOCC5)c([N+](=O)[O-])c4)c(Oc4cnc5[nH]ccc5c4)c3)CC2)=C(c2ccc(Cl)cc2)C1 + CC(Nc1ccc2c(c1)OCCn1cc(N3C(=O)OCC3C(F)F)nc1-2)C(N)=O
Second compound 0.00316 µM
  IC50: > 10 µM
Second compound 0.01 µM
  IC50: > 10 µM
Second compound 0.0316 µM
  IC50: > 10 µM
Second compound 0.1 µM
  IC50: > 10 µM
Second compound 0.316 µM
  IC50: > 10 µM
Second compound 1 µM
  IC50: > 10 µM
[1]
  viability, T/C: 88.5%
[2]
  viability, T/C: 86.8%
[13]
  viability, T/C: 104%
[14]
  viability, T/C: 96.9%
[15]
  viability, T/C: 89.1%
[16]
  viability, T/C: 77.4%
[3]
  viability, T/C: 93.3%
[4]
  viability, T/C: 81.3%
[17]
  viability, T/C: 123%
[18]
  viability, T/C: 93.7%
[19]
  viability, T/C: 75.5%
[20]
  viability, T/C: 69%
[5]
  viability, T/C: 81.4%
[6]
  viability, T/C: 90.5%
[21]
  viability, T/C: 99.9%
[22]
  viability, T/C: 72.7%
[23]
  viability, T/C: 74.5%
[24]
  viability, T/C: 79.1%
[7]
  viability, T/C: 72.7%
[8]
  viability, T/C: 66.9%
[25]
  viability, T/C: 79.1%
[26]
  viability, T/C: 66.9%
[27]
  viability, T/C: 81.1%
[28]
  viability, T/C: 56.6%
[9]
  viability, T/C: 79.6%
[10]
  viability, T/C: 74.2%
[29]
  viability, T/C: 94.9%
[30]
  viability, T/C: 77.4%
[31]
  viability, T/C: 79.1%
[32]
  viability, T/C: 63%
[11]
  viability, T/C: 87.1%
[12]
  viability, T/C: 93.3%
[33]
  viability, T/C: 79.3%
[34]
  viability, T/C: 86%
[35]
  viability, T/C: 94.4%
[36]
  viability, T/C: 77.8%

## C[C@@H](NC(=O)c1ncnc(N)c1Cl)c1ncc(C(=O)Nc2cc(C(F)(F)F)c(Cl)cn2)s1 + CC(Nc1ccc2c(c1)OCCn1cc(N3C(=O)OCC3C(F)F)nc1-2)C(N)=O
Second compound 0.00316 µM
  IC50: > 10 µM
Second compound 0.01 µM
  IC50: > 10 µM
Second compound 0.0316 µM
  IC50: > 10 µM
Second compound 0.1 µM
  IC50: > 10 µM
Second compound 0.316 µM
  IC50: > 10 µM
Second compound 1 µM
  IC50: > 10 µM
[1]
  viability, T/C: 108%
[2]
  viability, T/C: 107%
[13]
  viability, T/C: 73.1%
[14]
  viability, T/C: 59.5%
[15]
  viability, T/C: 78%
[16]
  viability, T/C: 77.9%
[3]
  viability, T/C: 110%
[4]
  viability, T/C: 86.4%
[17]
  viability, T/C: 80.7%
[18]
  viability, T/C: 72.8%
[19]
  viability, T/C: 78.8%
[20]
  viability, T/C: 77.2%
[5]
  viability, T/C: 92.6%
[6]
  viability, T/C: 90.5%
[21]
  viability, T/C: 83%
[22]
  viability, T/C: 63.5%
[23]
  viability, T/C: 73.4%
[24]
  viability, T/C: 78.2%
[7]
  viability, T/C: 115%
[8]
  viability, T/C: 99.2%
[25]
  viability, T/C: 65.7%
[26]
  viability, T/C: 69.4%
[27]
  viability, T/C: 77.6%
[28]
  viability, T/C: 68.7%
[9]
  viability, T/C: 98%
[10]
  viability, T/C: 77%
[29]
  viability, T/C: 68.7%
[30]
  viability, T/C: 68.5%
[31]
  viability, T/C: 67.2%
[32]
  viability, T/C: 56.6%
[11]
  viability, T/C: 77%
[12]
  viability, T/C: 93.7%
[33]
  viability, T/C: 68.4%
[34]
  viability, T/C: 63.2%
[35]
  viability, T/C: 55.4%
[36]
  viability, T/C: 53.1%

— PubChem BioAssay AID1963975 (Molecular Pharmacology Branch, DTP, NCI, 2024)
